# Reference: patent US20070128217A1 (priority 2003, published 2007)
# Key:
# [1] = test system: antibodies in sera from SARS patients (sera 1a, 1b, 2, 6, 37, 62, London, SARS-yellow, SARS-green); type: binding, human; design: Binding of serum 6 to linear peptides of protein X1 of SARS-CoV Urbani / Binding of serum 37 to linear peptides of protein X1 of SARS-CoV Urbani / Binding of serum 6 to looped/cyclic peptide (PEPSCAN-ELISA) / Binding of serum 37 to looped/cyclic peptide (PEPSCAN-ELISA) / Binding of serum 37 to looped/cyclic peptides of protein X1 of SARS-CoV Urbani / Binding of serum 6 to linear peptides of protein X2 / Binding of serum 37 to linear peptides of protein X2 / Binding of serum 37 to looped/cyclic peptides of protein X2 of SARS-CoV Urbani / Binding of serum 6 to linear peptides of protein M of SARS-CoV Urbani / Binding of serum 37 to linear peptides of protein M of SARS-CoV Urbani / Binding of serum 6 to looped/cyclic peptides of protein M of SARS-CoV Urbani / Binding of serum 37 to looped/cyclic peptides of protein M of SARS-CoV Urbani / Binding of serum 6 to linear peptides of protein X3 of SARS-CoV Urbani / Binding of serum 37 to linear peptides of protein X3 of SARS-CoV Urbani / Binding of serum 37 to looped/cyclic peptides of protein X3 of SARS-CoV Urbani / Binding of serum 6 to linear peptides of protein X4 of SARS-CoV Urbani / Binding of serum 37 to linear peptides of protein X4 of SARS-CoV Urbani / Binding of serum 37 to looped/cyclic peptides of protein X4 of SARS-CoV Urbani / Binding of serum 6 to linear peptides of protein X5 of SARS-CoV Urbani / Binding of serum 37 to linear peptides of protein X5 of SARS-CoV Urbani / Binding of serum 37 to looped/cyclic peptides of protein X5 of SARS-CoV Urbani / Binding of serum 6 to linear peptides of protein N of SARS-CoV Urbani / Binding of serum 37 to linear peptides of protein N of SARS-CoV Urbani / Binding of serum 6 to linear peptide (PEPSCAN-ELISA) / Binding of serum 1a to looped/cyclic peptides of protein N of SARS-CoV Urbani / Binding of serum 1b to looped/cyclic peptides of protein N of SARS-CoV Urbani / Binding of serum 2 to looped/cyclic peptides of protein N of SARS-CoV Urbani / Binding of serum 6 to looped/cyclic peptides of protein N of SARS-CoV Urbani / Binding of serum 37 to looped/cyclic peptides of protein N of SARS-CoV Urbani / Binding of serum 62 to looped/cyclic peptides of protein N of SARS-CoV Urbani / Binding of serum London to looped/cyclic peptides of protein N of SARS-CoV Urbani / Binding of serum SARS-green to looped/cyclic peptides of protein N of SARS-CoV Urbani: unit not given here
# [2] = test system: rabbit serum obtained by immunizing a rabbit with the SARS-CoV strain Frankfurt 1; type: binding; design: Binding of a rabbit serum to linear peptides / Binding of a rabbit serum to looped peptides / Rabbit serum linear peptides / Rabbit serum looped peptides / Binding of a rabbit serum to linear peptides of protein N of SARS-CoV Urbani (Rabbit serum linear peptides) / Binding of a rabbit serum to looped/cyclic peptides of protein N of SARS-CoV Urbani (Rabbit serum looped peptides): unit not given here
# [3] = test system: control sera (pooled serum of ten healthy LUMC hospital workers; commercial negative donor pooled serum from the Dutch bloodbank); type: binding, human; design: Binding of Control serum LUMC to linear peptides / Binding of Control serum Blood-bank to linear peptides / Binding of Control serum LUMC to looped peptides / Binding of Control Serum Blood-Bank to Looped peptides / Binding of Control serum LUMC to linear peptides of the protein M of SARS-CoV Urbani / Binding of Control serum Blood-bank to linear peptides of the protein M of SARS-CoV Urbani / Binding of Control serum LUMC to looped peptides of the protein M of SARS-CoV Urbani / Binding of Control Serum Blood-Bank to Looped peptides of the protein M of SARS-CoV Urbani: unit not given here
sequence,measurement,setting,value
LQASLPFGWLVIGVA,Binding of serum 1a to linear peptides of protein X1 of SARS-CoV Urbani,[1],0.7
same,Binding of serum 1a to looped/cyclic peptide (PEPSCAN-ELISA),[1],0.4
same,Binding of serum 1b to linear peptides of protein X1 of SARS-CoV Urbani,[1],0.6
same,Binding of serum 1b to looped/cyclic peptide (PEPSCAN-ELISA),[1],0.3
same,Binding of serum 2 to linear peptides of protein X1 of SARS-CoV Urbani,[1],0.6
same,Binding of serum 2 to looped/cyclic peptide (PEPSCAN-ELISA),[1],0.3
same,Binding of serum 6 to linear peptides of protein X1 of SARS-CoV Urbani,[1],0.4
same,Binding of serum 6 to looped/cyclic peptide (PEPSCAN-ELISA),[1],0.3
same,Binding of serum 37 to linear peptides of protein X1 of SARS-CoV Urbani,[1],0.7
same,Binding of serum 37 to looped/cyclic peptide (PEPSCAN-ELISA),[1],0.4
same,Binding of serum 62 to linear peptides of protein X1 of SARS-CoV Urbani,[1],0.7
same,Binding of serum 62 to looped/cyclic peptide (PEPSCAN-ELISA),[1],0.5
same,Binding of serum London to linear peptides of protein X1 of SARS-CoV Urbani,[1],0.2
same,Binding of serum London to looped/cyclic peptide (PEPSCAN-ELISA),[1],0.2
same,Binding of serum SARS-green to linear peptides of protein X1 of SARS-CoV Urbani,[1],0.3
same,Binding of serum SARS-green to looped/cyclic peptide (PEPSCAN-ELISA),[1],0.2
same,Binding of serum SARS-yellow to linear peptides of protein X1 of SARS-CoV Urbani,[1],0.6
same,Binding of serum SARS-yellow to looped/cyclic peptide (PEPSCAN-ELISA),[1],0.4
same,Binding of a rabbit serum to linear peptides,[2],0.5
same,Binding of a rabbit serum to looped peptides,[2],0.4
same,Binding of Control Serum Blood-Bank to Looped peptides,[3],0.6
same,Binding of Control serum Blood-bank to linear peptides,[3],0.8
same,Binding of Control serum LUMC to linear peptides,[3],0.5
same,Binding of Control serum LUMC to looped peptides,[3],0.5
LFIRQEEVQQELYSP,Binding of serum 1a to linear peptides of protein X4 of SARS-CoV Urbani,[1],0.8
same,Binding of serum 1a to looped/cyclic peptides of protein X4 of SARS-CoV Urbani,[1],0.7
same,Binding of serum 1b to linear peptides of protein X4 of SARS-CoV Urbani,[1],0.7
same,Binding of serum 1b to looped/cyclic peptides of protein X4 of SARS-CoV Urbani,[1],0.5
same,Binding of serum 2 to linear peptides of protein X4 of SARS-CoV Urbani,[1],0.6
same,Binding of serum 2 to looped/cyclic peptides of protein X4 of SARS-CoV Urbani,[1],0.7
same,Binding of serum 6 to linear peptides of protein X4 of SARS-CoV Urbani,[1],0.5
same,Binding of serum 37 to linear peptides of protein X4 of SARS-CoV Urbani,[1],0.7
same,Binding of serum 37 to looped/cyclic peptides of protein X4 of SARS-CoV Urbani,[1],0.7
same,Binding of serum 62 to linear peptides of protein X4 of SARS-CoV Urbani,[1],0.8
same,Binding of serum 62 to looped/cyclic peptides of protein X4 of SARS-CoV Urbani,[1],0.8
same,Binding of serum London to linear peptides of protein X4 of SARS-CoV Urbani,[1],0.8
same,Binding of serum London to looped/cyclic peptides of protein X4 of SARS-CoV Urbani,[1],0.3
same,Binding of serum SARS-green to linear peptides of protein X4 of SARS-CoV Urbani,[1],0.6
same,Binding of serum SARS-green to looped/cyclic peptides of protein X4 of SARS-CoV Urbani,[1],0.8
same,Binding of serum SARS-yellow to linear peptides of protein X4 of SARS-CoV Urbani,[1],0.7
same,Binding of serum SARS-yellow to looped/cyclic peptides of protein X4 of SARS-CoV Urbani,[1],0.7
same,Rabbit serum linear peptides,[2],0.4
same,Rabbit serum looped peptides,[2],0.4
same,Binding of Control Serum Blood-Bank to Looped peptides,[3],0.8
same,Binding of Control serum Blood-bank to linear peptides,[3],0.7
same,Binding of Control serum LUMC to linear peptides,[3],0.7
same,Binding of Control serum LUMC to looped peptides,[3],0.8
QIQLSLLKVTAFQHQ,Binding of serum 1a to linear peptides of protein X2,[1],0.5
same,Binding of serum 1a to looped/cyclic peptides of protein X2 of SARS-CoV Urbani,[1],0.6
same,Binding of serum 1b to linear peptides of protein X2,[1],0.4
same,Binding of serum 1b to looped/cyclic peptides of protein X2 of SARS-CoV Urbani,[1],0.5
same,Binding of serum 2 to linear peptides of protein X2,[1],0.4
same,Binding of serum 2 to looped/cyclic peptides of protein X2 of SARS-CoV Urbani,[1],0.4
same,Binding of serum 6 to linear peptides of protein X2,[1],0.4
same,Binding of serum 6 to looped/cyclic peptides of protein X2 of SARS-CoV Urbani,[1],0.6
same,Binding of serum 37 to linear peptides of protein X2,[1],0.6
same,Binding of serum 37 to looped/cyclic peptides of protein X2 of SARS-CoV Urbani,[1],0.4
same,Binding of serum 62 to linear peptides of protein X2,[1],0.3
same,Binding of serum 62 to looped/cyclic peptides of protein X2 of SARS-CoV Urbani,[1],0.6
same,Binding of serum London to linear peptides of protein X2,[1],0.3
same,Binding of serum London to looped/cyclic peptides of protein X2 of SARS-CoV Urbani,[1],0.7
same,Binding of serum SARS-green to linear peptides of protein X2,[1],0.2
same,Binding of serum SARS-green to looped/cyclic peptides of protein X2 of SARS-CoV Urbani,[1],0.4
same,Binding of serum SARS-yellow to linear peptides of protein X2,[1],0.4
same,Binding of serum SARS-yellow to looped/cyclic peptides of protein X2 of SARS-CoV Urbani,[1],0.6
same,Binding of a rabbit serum to linear peptides,[2],0.6
same,Binding of a rabbit serum to looped peptides,[2],0.5
same,Binding of Control Serum Blood-Bank to Looped peptides,[3],0.6
same,Binding of Control serum Blood-bank to linear peptides,[3],0.4
same,Binding of Control serum LUMC to linear peptides,[3],0.7
same,Binding of Control serum LUMC to looped peptides,[3],0.6
TMTTVYHITVSQIQL,Binding of serum 1a to linear peptides of protein X2,[1],0.6
same,Binding of serum 1a to looped/cyclic peptides of protein X2 of SARS-CoV Urbani,[1],0.4
same,Binding of serum 1b to linear peptides of protein X2,[1],0.2
same,Binding of serum 1b to looped/cyclic peptides of protein X2 of SARS-CoV Urbani,[1],0.4
same,Binding of serum 2 to linear peptides of protein X2,[1],0.4
same,Binding of serum 2 to looped/cyclic peptides of protein X2 of SARS-CoV Urbani,[1],0.3
same,Binding of serum 6 to linear peptides of protein X2,[1],0.5
same,Binding of serum 6 to looped/cyclic peptides of protein X2 of SARS-CoV Urbani,[1],0.2
same,Binding of serum 37 to linear peptides of protein X2,[1],0.7
same,Binding of serum 37 to looped/cyclic peptides of protein X2 of SARS-CoV Urbani,[1],0.4
same,Binding of serum 62 to linear peptides of protein X2,[1],0.3
same,Binding of serum 62 to looped/cyclic peptides of protein X2 of SARS-CoV Urbani,[1],0.5
same,Binding of serum London to linear peptides of protein X2,[1],0.4
same,Binding of serum London to looped/cyclic peptides of protein X2 of SARS-CoV Urbani,[1],0.2
same,Binding of serum SARS-green to linear peptides of protein X2,[1],0.2
same,Binding of serum SARS-green to looped/cyclic peptides of protein X2 of SARS-CoV Urbani,[1],0.3
same,Binding of serum SARS-yellow to linear peptides of protein X2,[1],0.7
same,Binding of serum SARS-yellow to looped/cyclic peptides of protein X2 of SARS-CoV Urbani,[1],0.3
same,Binding of a rabbit serum to linear peptides,[2],0.7
same,Binding of a rabbit serum to looped peptides,[2],0.4
same,Binding of Control Serum Blood-Bank to Looped peptides,[3],0.6
same,Binding of Control serum Blood-bank to linear peptides,[3],0.6
same,Binding of Control serum LUMC to linear peptides,[3],0.8
same,Binding of Control serum LUMC to looped peptides,[3],0.5
QLESTQITTDTGIEN,Binding of serum 1a to linear peptides of protein X1 of SARS-CoV Urbani,[1],0.6
same,Binding of serum 1a to looped/cyclic peptides of protein X1 of SARS-CoV Urbani,[1],0.4
same,Binding of serum 1b to linear peptides of protein X1 of SARS-CoV Urbani,[1],0.5
same,Binding of serum 1b to looped/cyclic peptides of protein X1 of SARS-CoV Urbani,[1],0.3
same,Binding of serum 2 to linear peptides of protein X1 of SARS-CoV Urbani,[1],0.4
same,Binding of serum 2 to looped/cyclic peptides of protein X1 of SARS-CoV Urbani,[1],0.3
same,Binding of serum 6 to linear peptides of protein X1 of SARS-CoV Urbani,[1],0.4
same,Binding of serum 6 to looped/cyclic peptides of protein X1 of SARS-CoV Urbani,[1],0.2
same,Binding of serum 37 to linear peptides of protein X1 of SARS-CoV Urbani,[1],0.5
same,Binding of serum 37 to looped/cyclic peptides of protein X1 of SARS-CoV Urbani,[1],0.5
same,Binding of serum 62 to linear peptides of protein X1 of SARS-CoV Urbani,[1],0.5
same,Binding of serum 62 to looped/cyclic peptides of protein X1 of SARS-CoV Urbani,[1],0.5
same,Binding of serum London to linear peptides of protein X1 of SARS-CoV Urbani,[1],0.3
same,Binding of serum London to looped/cyclic peptides of protein X1 of SARS-CoV Urbani,[1],0.2
same,Binding of serum SARS-green to linear peptides of protein X1 of SARS-CoV Urbani,[1],0.2
same,Binding of serum SARS-green to looped/cyclic peptides of protein X1 of SARS-CoV Urbani,[1],0.4
same,Binding of serum SARS-yellow to linear peptides of protein X1 of SARS-CoV Urbani,[1],0.4
same,Binding of serum SARS-yellow to looped/cyclic peptides of protein X1 of SARS-CoV Urbani,[1],0.4
same,Binding of a rabbit serum to linear peptides,[2],0.1
same,Binding of a rabbit serum to looped peptides,[2],0.6
same,Binding of Control Serum Blood-Bank to Looped peptides,[3],0.5
same,Binding of Control serum Blood-bank to linear peptides,[3],0.3
same,Binding of Control serum LUMC to linear peptides,[3],0.5
same,Binding of Control serum LUMC to looped peptides,[3],0.5
